In US20060003924A1, “Sulfation-independent L-selectin or E-selectin ligand (HCELL) and therapeutics thereof” (priority 1994, published 2006):

Assays:
[1] = test system: CD43; assay: Flow cytometry of sialic acid-dependent L60 epitope of CD43 on KG1a after neuraminidase; type: cell-based, human; settings: KG1a cultured with the agent
[2] = test system: KG1a; assay: Lymphocyte adherence assay on KG1a cytocentrifuge preparations (Examples 2-6); type: cell-based, human
[3] = test system: sulfation; assay: 35S-SO4 pulse radiolabelling of KG1a, TCA-precipitable counts; settings: 10 mM chlorate, eight hour pulses within 24 hours
[4] = test system: KG1a cells; assay: Stamper-Woodruff lymphocyte adherence assay on KG1a cytospins (Example 9); type: cell-based, human; settings: Stamper-Woodruff assay
[5] = test system: KG1a; assay: KG1a cell viability by trypan blue exclusion; type: cell-based, human; settings: KG1a after the treatment
[6] = test system: protein synthesis; assay: 35S-methionine/cysteine incorporation into TCA-precipitable protein of KG1a; type: cell-based, human
Description: In each case, cells were cultured for 20 hours and the expression of L-selectin ligand activity was measured by adherence assay at the end of the culture period. For all studies utilizing metabolic inhibitors, parallel cultures were established in the presence of ^35S-methionine/cysteine and protein synthesis was measured by scintillation counting of trichloroacetic acid (TCA)-precipitable protein as previously described (27).

[7] = test system: PSGL-1 on KG1a cells; assay: P-selectin-Ig binding to PSGL-1 on KG1a cells (flow cytometry); type: cell-based, human; settings: after treatment of KG1a
[8] = test system: L-selectin; assay: Flow cytometry of surface L-selectin (TQ1) on PMA-treated PBL; type: cell-based, human; settings: 10 ng/ml PMA, 1 hour 37° C.
Description: (§1) PMA Treatment of Lymphocytes. Lymphocytes were suspended at 1′ 10^7 cells/ml in cell culture medium and incubated 1 hour at 37° C. with or without 10 ng/ml PMA (Gibco-BRL). Cells were then washed twice in PBS and used in either the lymphocyte binding assay or analyzed for surface antigens by flow cytometry (see below).
(§2) Antigen Expression by Flow Cytometry. Flow cytometric analysis was performed using the following commercially-available mAbs together with isotype-matched controls: TQ1 (anti-L-selectin), LAM1-3 (Anti-L-selectin), 4B4 (anti-VLA-4) (all from Coulter Corp.); QBEND10 (anti-CD34) (AMAC, Westbrook, Me.); anti-CD44, LFA-1-b (anti-CD18), LFA-1-a (anti-CD11a), HPCAS-2 (anti-CD34), anti-CD45, Leukosialin (anti-CD43), anti-Sialyl-Le^x (all from Becton Dickinson). Cells (1′ 10^6) in […] of PBS with 2% FBS were incubated on ice for 25 minutes with antibody as per manufacturer's recommendations, washed ′3 and analyzed on a FACStar^PLUS (Becton Dickinson).

[9] = test system: CD44, LFA-1 (both a and b chains), and VLA-4; assay: Flow cytometry of CD44, LFA-1 and VLA-4 on PMA-treated PBL; type: cell-based, human; settings: vs control PBL
Description: as §1, §2

[10] = test system: LN HEV; assay: Lymphocyte adherence to frozen rat lymph node sections (LN HEV, positive control); type: cell-based
Description: Lymphocyte Adherence Assay. […] Cytocentrifuge preparations of KG1a or other cell lines were made on a Cytospin 3 Cytocentrifuge (Shandon Lipshaw, Pittsburgh, Pa.). Frozen rat LN sections […] thick were mounted on slides, and lymphocyte binding to LN HEV served as a positive control in all experiments.
Lymphocyte suspensions ([…]) were overlaid onto cytocentrifuge or LN sections in duplicate and placed on a rotating platform (80 rpm) at 4° C. for 30 minutes. Slides were then rinsed in cold PBS to remove non-adherent lymphocytes, fixed in 3% glutaraldehyde, and stained with methyl green-thionin. Slides were examined under the light microscope for adherence of lymphocytes to KG1a or LN HEV.

Row | SMILES | return of the L60 epitope of CD43 after neuraminidase [1] | lymphocyte adherence to chlorate-incubated KG1a cells, that of neuraminidase-treated KG1a cells not incubated in chlorate ([2]; 24 hours after neuraminidase, 10 mM sodium chlorate, mean±SEM) | Lymphocyte Adherence to KG1a, Mean of Binding (% of untreated control) ([2]; after neuraminidase, 24 hr culture with chlorate 10 mM, 20 hr culture with tunicamycin 15 ug/ml or cycloheximide 1.25 ug/ml) | TCA-precipitable 35S-SO4 radiolabeled protein counts, that of non-chlorate treated controls [3] | L-selectin ligand (HCELL) activity of KG1a / lymphocyte adherence (result in words) [4] | Cell viability (trypan blue exclusion) [5] | protein synthesis (35S-methionine/cysteine TCA-precipitable counts) [6] | P-selectin(-Ig) binding to PSGL-1 on KG1a cells [7] | lymphocyte binding to KG1a (result in words) [2] | Lymphocyte Adherence to KG1a, Mean of Binding (% of untreated control) ([2]; […], 1 mM EDTA, 10 mM mannose-6-P, 10 mg/ml PPME, 5 mg/ml fucoidin, 10 ng/ml PMA) | TQ1 mean channel fluorescence, of that of untreated cells [8] | expression of CD44, LFA-1 and VLA-4 following PMA exposure [9] | lymphocyte binding to LN control sections / LN HEV (result in words) [10]
1 | [O-][Cl+2]([O-])O [Chlorate, sodium chlorate] | did not block re-expression | 107% | 107.1 % of untreated control | < 10% | did not alter | > 95% | did not inhibit | eliminated |  |  |  |  | 
2 | CCCCCCCCCCCCCC(=O)O[C@@H]1[C@@H](C)[C@@]2(O)[C@@H](C=C(CO)C[C@]3(O)C(=O)C(C)=C[C@@H]23)[C@@H]2C(C)(C)[C@]12OC(C)=O [PMA, phorbol myristate acetate] |  |  |  |  | complete elimination |  |  |  | unable to bind | 1.1 % of Untreated Control | less than 10% | identical | unable to bind
